{"source": "patent US10280170B2", "about": "“Substituted 4,5,6,7-tetrahydro-pyrazolo[1,5-a]pyrazine derivatives and 5,6,7,8-tetrahydro-4H-pyrazolo[1,5-a][1,4]diazepine derivatives as Ros1 inhibitors” (Janssen Pharmaceutica NV, priority 2014, dated 2019)", "key": {"[1]": {"target": "T1, Ba/F3 cells containing Ros1 wild-type protein (Homo sapiens, UniProt P08922, cells depend on it, form not given)", "T1 construct": "The background only speaks of 'a number of different unrelated proteins' and names SLC34A2-ROS1 for HCC78 cells", "T1 sequence (P08922 whole entry, stated change not applied)": "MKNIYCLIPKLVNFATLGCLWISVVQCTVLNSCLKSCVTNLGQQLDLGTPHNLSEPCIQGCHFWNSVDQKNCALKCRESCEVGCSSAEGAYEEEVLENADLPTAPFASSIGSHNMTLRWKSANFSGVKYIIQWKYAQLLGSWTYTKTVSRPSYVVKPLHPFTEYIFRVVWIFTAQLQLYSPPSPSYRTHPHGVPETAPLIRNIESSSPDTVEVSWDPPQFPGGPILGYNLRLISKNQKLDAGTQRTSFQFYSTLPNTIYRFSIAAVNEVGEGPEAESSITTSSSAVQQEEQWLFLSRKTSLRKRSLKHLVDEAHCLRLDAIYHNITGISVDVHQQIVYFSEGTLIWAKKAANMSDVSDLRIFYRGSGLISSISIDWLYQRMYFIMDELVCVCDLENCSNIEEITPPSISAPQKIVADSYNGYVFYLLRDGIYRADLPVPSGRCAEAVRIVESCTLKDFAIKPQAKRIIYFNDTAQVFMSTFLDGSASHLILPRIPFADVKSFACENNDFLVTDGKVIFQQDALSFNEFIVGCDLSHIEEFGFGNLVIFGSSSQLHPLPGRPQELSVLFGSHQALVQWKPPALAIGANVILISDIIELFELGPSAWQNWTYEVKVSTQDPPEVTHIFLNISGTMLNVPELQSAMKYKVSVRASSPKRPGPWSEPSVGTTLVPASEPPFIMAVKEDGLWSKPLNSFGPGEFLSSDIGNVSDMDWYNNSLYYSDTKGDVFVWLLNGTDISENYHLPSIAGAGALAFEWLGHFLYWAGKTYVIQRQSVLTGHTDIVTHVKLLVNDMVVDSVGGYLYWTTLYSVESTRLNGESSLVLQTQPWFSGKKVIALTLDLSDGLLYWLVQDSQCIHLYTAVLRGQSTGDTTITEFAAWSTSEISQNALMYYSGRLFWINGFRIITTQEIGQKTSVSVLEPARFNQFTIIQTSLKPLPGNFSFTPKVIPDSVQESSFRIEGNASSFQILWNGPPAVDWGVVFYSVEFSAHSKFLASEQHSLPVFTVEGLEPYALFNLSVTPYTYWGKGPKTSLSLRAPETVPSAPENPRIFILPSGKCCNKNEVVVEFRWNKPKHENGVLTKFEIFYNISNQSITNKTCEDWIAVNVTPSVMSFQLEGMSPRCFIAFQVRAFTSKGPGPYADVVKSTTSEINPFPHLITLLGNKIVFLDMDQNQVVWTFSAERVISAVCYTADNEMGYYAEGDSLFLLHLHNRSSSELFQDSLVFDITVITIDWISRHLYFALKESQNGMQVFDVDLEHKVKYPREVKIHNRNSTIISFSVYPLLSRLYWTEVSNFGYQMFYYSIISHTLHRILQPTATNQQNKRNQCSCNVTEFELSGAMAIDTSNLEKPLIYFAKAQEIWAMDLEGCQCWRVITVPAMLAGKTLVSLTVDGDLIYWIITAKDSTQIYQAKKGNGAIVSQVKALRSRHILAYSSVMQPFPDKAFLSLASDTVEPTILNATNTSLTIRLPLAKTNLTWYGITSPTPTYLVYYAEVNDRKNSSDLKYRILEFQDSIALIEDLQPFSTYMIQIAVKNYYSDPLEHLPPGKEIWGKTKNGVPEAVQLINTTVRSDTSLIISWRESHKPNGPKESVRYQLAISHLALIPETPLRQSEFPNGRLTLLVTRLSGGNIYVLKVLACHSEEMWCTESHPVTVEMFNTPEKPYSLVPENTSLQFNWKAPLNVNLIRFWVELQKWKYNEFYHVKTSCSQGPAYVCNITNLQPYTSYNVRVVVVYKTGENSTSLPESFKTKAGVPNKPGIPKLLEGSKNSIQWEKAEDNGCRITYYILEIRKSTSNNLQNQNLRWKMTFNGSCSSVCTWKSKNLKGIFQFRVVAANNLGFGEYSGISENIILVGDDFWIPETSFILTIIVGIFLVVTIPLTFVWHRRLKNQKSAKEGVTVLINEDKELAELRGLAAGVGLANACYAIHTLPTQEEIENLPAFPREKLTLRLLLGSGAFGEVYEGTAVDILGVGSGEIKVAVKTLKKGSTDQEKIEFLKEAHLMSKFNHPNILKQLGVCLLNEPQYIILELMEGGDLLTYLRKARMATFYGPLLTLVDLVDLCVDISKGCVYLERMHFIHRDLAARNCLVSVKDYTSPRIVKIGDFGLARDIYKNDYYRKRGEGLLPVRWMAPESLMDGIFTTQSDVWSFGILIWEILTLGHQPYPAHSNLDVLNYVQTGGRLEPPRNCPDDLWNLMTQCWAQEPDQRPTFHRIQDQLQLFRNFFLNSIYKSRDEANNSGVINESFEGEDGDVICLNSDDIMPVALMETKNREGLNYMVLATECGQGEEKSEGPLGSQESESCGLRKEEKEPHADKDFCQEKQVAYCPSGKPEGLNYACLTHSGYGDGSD", "assay": "Ba/F3-Ros1 cell proliferation assay, wild-type Ros1", "type": "cell-based, murine", "settings": "without IL-3", "procedure": "(§1) Ba/F3-Ros1 Cell Proliferation Assay\n(§2) This assay was carried out with Ba/F3 cells containing three different versions of Ros1: the wild-type protein, protein with a mutation at the gatekeeper residue (L2026M), and protein with a mutation identified in a tumor from a patient that became resistant to crizotinib (Xalkori®) treatment (G2032R). Compounds were solubilized in 100% DMSO (dimethyl sulfoxide) and sprayed into polystyrene, tissue culture treated 384-well plates. A 50 μl volume of cell culture medium (phenol red free RPMI-1640, 10% FBS (fetal bovine serum), 2 mM L-Glutamine) containing 20000 Ba/F3-Ros1 cells was added to each well and the plates were placed in an incubator at 37° C. and 5% CO2. After 24 hours, 10 μl of Alamar Blue solution (0.5 mM K3Fe(CN)6, 0.5 mM K4Fe(CN)6, 0.15 mM Resazurin and 100 mM Phosphate Buffer) was added to the wells, incubated for 4 hours at 37° C. and 5% CO2 before RFU's (Relative Fluorescence Units) (ex. 540 nm., em. 590 nm.) were measured in a fluorescence plate reader."}, "Ros1 enzyme": {"target": "T2, Ros1 enzyme (Homo sapiens, UniProt P08922)", "T2 construct": "0.5 μg/ml Ros1 enzyme", "T2 sequence (P08922 28-2347)": "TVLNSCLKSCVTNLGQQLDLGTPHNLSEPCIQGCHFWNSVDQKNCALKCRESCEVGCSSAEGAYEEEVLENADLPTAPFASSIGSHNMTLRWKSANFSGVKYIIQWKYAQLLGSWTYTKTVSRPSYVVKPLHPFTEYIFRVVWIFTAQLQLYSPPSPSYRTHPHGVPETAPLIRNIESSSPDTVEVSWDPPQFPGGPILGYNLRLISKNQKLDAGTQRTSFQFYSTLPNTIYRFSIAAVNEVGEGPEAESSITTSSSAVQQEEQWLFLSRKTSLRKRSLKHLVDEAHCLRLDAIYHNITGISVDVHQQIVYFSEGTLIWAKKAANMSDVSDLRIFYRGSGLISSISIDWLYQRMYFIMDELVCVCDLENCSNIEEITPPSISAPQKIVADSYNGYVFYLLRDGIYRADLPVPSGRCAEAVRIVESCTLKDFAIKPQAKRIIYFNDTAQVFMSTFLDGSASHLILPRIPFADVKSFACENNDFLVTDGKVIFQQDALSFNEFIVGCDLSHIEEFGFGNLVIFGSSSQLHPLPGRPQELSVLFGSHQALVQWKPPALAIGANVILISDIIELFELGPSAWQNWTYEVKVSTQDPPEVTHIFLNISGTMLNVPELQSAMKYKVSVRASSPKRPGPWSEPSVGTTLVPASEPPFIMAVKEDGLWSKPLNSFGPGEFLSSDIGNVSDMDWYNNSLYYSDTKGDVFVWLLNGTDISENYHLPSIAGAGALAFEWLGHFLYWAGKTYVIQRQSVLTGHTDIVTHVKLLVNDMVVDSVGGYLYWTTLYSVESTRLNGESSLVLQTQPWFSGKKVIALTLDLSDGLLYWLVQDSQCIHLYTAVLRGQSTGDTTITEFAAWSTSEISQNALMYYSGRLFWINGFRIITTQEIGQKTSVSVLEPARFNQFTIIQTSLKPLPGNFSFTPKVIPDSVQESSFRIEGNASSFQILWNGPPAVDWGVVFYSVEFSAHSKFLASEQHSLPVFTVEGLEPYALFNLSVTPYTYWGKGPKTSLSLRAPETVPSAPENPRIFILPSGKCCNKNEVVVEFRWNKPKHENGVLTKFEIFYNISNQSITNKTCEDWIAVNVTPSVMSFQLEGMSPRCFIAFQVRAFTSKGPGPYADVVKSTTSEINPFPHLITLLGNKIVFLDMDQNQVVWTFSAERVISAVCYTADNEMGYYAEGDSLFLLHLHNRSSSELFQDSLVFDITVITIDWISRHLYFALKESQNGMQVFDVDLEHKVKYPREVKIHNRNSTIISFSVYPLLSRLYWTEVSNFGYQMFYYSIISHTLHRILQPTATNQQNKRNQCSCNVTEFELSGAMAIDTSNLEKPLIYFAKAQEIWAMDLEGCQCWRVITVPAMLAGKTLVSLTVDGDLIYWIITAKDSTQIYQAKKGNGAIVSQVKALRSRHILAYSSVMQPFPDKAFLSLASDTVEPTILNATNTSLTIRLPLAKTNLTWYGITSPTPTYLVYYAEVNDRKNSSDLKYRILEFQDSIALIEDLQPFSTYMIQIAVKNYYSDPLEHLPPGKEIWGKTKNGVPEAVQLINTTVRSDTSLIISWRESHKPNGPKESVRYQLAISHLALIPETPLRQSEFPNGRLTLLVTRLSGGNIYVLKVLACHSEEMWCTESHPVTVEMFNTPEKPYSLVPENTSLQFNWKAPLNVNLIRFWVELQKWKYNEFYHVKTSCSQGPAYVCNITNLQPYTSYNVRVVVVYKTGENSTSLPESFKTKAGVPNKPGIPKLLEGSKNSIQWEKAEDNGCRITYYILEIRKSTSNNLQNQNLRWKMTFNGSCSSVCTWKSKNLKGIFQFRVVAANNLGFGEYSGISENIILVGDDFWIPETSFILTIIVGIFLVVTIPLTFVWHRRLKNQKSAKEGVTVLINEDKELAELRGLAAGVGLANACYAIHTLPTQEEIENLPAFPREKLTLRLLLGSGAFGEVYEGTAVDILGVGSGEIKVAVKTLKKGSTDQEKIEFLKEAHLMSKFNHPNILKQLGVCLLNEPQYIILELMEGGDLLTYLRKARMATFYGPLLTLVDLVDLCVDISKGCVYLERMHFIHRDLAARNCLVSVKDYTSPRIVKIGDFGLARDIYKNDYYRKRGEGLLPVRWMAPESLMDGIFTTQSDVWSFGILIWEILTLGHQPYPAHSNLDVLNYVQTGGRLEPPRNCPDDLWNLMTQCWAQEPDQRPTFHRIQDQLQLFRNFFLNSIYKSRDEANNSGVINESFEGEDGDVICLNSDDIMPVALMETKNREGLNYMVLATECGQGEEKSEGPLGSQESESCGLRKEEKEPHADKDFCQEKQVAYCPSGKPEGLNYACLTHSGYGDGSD", "assay": "Ros1 enzymatic assay", "type": "biochemical", "settings": "Ros1 enzymatic assay; for IC50: read-out: ROS1 pIC50 (converted)", "procedure": "Compounds were spotted onto white 384-well Proxiplate plus plates (Perkin Elmer) to which 5 μl of enzyme mix (0.5 μg/ml Ros1 enzyme, 50 mM Tris-HCl pH7.5, 1 mM EGTA, 10 mM MgCl2, 0.01% Tween-20) and 5 μl of substrate mix (6 μg/ml IRS-Tide [American Peptide Company], 20 μM ATP, 13.33 μCi/ml ATP (adenosine 5′-triphosphate) P^33, 50 mM Tris-HCl pH7.5, 1 mM EGTA (ethylene glycol-bis(2-aminoethylether)-N,N,N′,N′-tetraacetic acid), 10 mM MgCl2, 0.01% Tween-20) were added. After incubation for 120 minutes at room temperature, 10 μl of stop reaction buffer (5 mM EDTA, 50 μM ATP, 0.1% BSA (bovine serum albumin), 0.1% Triton X-100, 50 mM Tris-HCl pH7.5, 1 mM EGTA, 10 mM MgCl2, 0.01% Tween-20) containing 2 mg/ml streptavidin coupled polystyrene imaging beads (Amersham Biosciences) was added and incubated for 15 minutes at room temperature. Plates were centrifuged for 3 minutes at 1500 rpm and signals detected in a LEADseeker imaging system (GE)."}, "[2]": {"tested_on": "Ba/F3 cells containing Ros1 wild-type protein + IL-3", "assay": "Ba/F3-Ros1 cell proliferation counter-screen, wild-type protein in the presence of 10 ng/ml murine IL-3", "type": "cell-based", "settings": "Mus musculus, BaF3, 24 h, read-out: BaF3-ROS1 + IL3 pIC50 (converted)", "procedure": "as §2\nAs a counter-screen the same experiment was performed for the wild-type protein in the presence of 10 ng/ml murine IL-3."}, "[3]": {"target": "Ba/F3 cells containing Ros1 with a mutation at the gatekeeper residue (L2026M) (Homo sapiens, UniProt P08922, L2026M, cells depend on it, form not given)", "sequence (P08922 whole entry L2026M, form open)": "as the sequence (P08922 whole entry, stated change not applied) above, with L2026M counted along it", "assay": "Ba/F3-Ros1 cell proliferation assay, L2026M gatekeeper mutant", "type": "cell-based, murine", "settings": "without IL-3", "procedure": "as §1, §2"}, "[4]": {"settings": "counter-screen, wild-type, 10 ng/ml murine IL-3"}}, "note": "Where two headings read alike, the source gives them in different places.", "data": [{"smiles": "O=C1NCCn2nc(-c3ccncc3)c(-c3ccc(OCc4ccc(OC(F)F)cc4)cc3)c21", "note": "[Compound 118]", "values": [{"measurement": "melting point", "result": 250, "unit": "°C"}, {"measurement": "BaF3-ROS1-IL3 pIC50", "setting": "[1]", "result": 7.1}, {"measurement": "IC50", "setting": "Ros1 enzyme", "result": 0.158, "unit": "µM"}, {"measurement": "CC50", "setting": "[2]", "result": "> 10", "unit": "µM"}]}, {"smiles": "CNCC(=O)N1CCn2nc(-c3ccncc3)c(-c3ccc(OCc4ccc(C(C)C)cc4)cc3)c2C1", "note": "[Compound 182]", "values": [{"measurement": "BaF3-ROS1-IL3 pIC50", "setting": "[1]", "result": 5.7}, {"measurement": "IC50", "setting": "Ros1 enzyme", "result": 1.26, "unit": "µM"}, {"measurement": "CC50", "setting": "[2]; [4]", "result": 5.01, "unit": "µM"}]}, {"smiles": "COc1ncc(COc2ccc(-c3c(-c4ccncc4)nn4c3C(=O)NCC4)cc2)cn1", "note": "[Compound 229]", "values": [{"measurement": "melting point", "result": 248, "unit": "°C"}, {"measurement": "BaF3-ROS1-IL3 pIC50", "setting": "[1]", "result": "<5"}, {"measurement": "IC50", "setting": "Ros1 enzyme", "result": "> 10", "unit": "µM"}, {"measurement": "CC50", "setting": "[2]; [4]", "result": "> 10", "unit": "µM"}]}, {"smiles": "CC(C)c1ccc(COc2ccc(-c3c(-c4ccncc4)nn4c3CN(CC(=O)N3CCCC3)CC4)cc2)cc1", "note": "[Compound 179]", "values": [{"measurement": "BaF3-ROS1-IL3 pIC50", "setting": "[1]", "result": 6.4}, {"measurement": "IC50", "setting": "Ros1 enzyme", "result": 0.501, "unit": "µM"}, {"measurement": "CC50", "setting": "[2]; [4]", "result": "> 10", "unit": "µM"}]}, {"smiles": "c1cc(-c2nn3c(c2-c2ccc(OCc4ccc(C5CC5)nc4)cc2)CNCC3)ccn1", "note": "[Compound 186]", "values": [{"measurement": "melting point", "result": 195, "unit": "°C"}, {"measurement": "BaF3-ROS1-IL3 pIC50", "setting": "[1]", "result": 6.2}, {"measurement": "IC50", "setting": "Ros1 enzyme", "result": 1, "unit": "µM"}, {"measurement": "CC50", "setting": "[2]; [4]", "result": "> 10", "unit": "µM"}]}, {"smiles": "COC(=O)c1ccc(COc2ccc(-c3c(-c4ccncc4)nn4c3C(=O)NCC4)cc2)cc1", "note": "[Compound 9a]", "values": [{"measurement": "melting point", "result": 254, "unit": "°C"}, {"measurement": "BaF3-ROS1-IL3 pIC50", "setting": "[1]", "result": "<5"}, {"measurement": "IC50", "setting": "Ros1 enzyme", "result": 2.51, "unit": "µM"}, {"measurement": "CC50", "setting": "[2]; [4]", "result": "> 10", "unit": "µM"}]}, {"smiles": "COCCOc1cc(COc2ccc(-c3c(-c4ccncc4)nn4c3C(=O)NCC4)cc2)ccc1C", "note": "[Compound 104]", "values": [{"measurement": "melting point", "result": 190, "unit": "°C"}, {"measurement": "BaF3-ROS1-IL3 pIC50", "setting": "[1]", "result": 6.1}, {"measurement": "IC50", "setting": "Ros1 enzyme", "result": 1.26, "unit": "µM"}, {"measurement": "CC50", "setting": "[2]", "result": "> 10", "unit": "µM"}]}, {"smiles": "CC(C)c1ccc(COc2ccc(-c3c(-c4cc[n+]([O-])cc4)nn4c3C(=O)NCC4)cc2)cc1", "note": "[Compound 170]", "values": [{"measurement": "melting point", "result": 227, "unit": "°C"}, {"measurement": "BaF3-ROS1-IL3 pIC50", "setting": "[1]", "result": 5.2}, {"measurement": "IC50", "setting": "Ros1 enzyme", "result": 6.31, "unit": "µM"}, {"measurement": "CC50", "setting": "[2]; [4]", "result": "> 10", "unit": "µM"}]}, {"smiles": "O=C1NCCn2nc(-c3ccncc3)c(-c3ccc(OCc4cccc(C(F)(F)F)c4)cc3)c21", "note": "[Compound 120]", "values": [{"measurement": "melting point", "result": 293, "unit": "°C"}, {"measurement": "BaF3-ROS1-IL3 pIC50", "setting": "[1]", "result": 6.6}, {"measurement": "IC50", "setting": "Ros1 enzyme", "result": 0.251, "unit": "µM"}, {"measurement": "CC50", "setting": "[2]", "result": "> 10", "unit": "µM"}]}, {"smiles": "NCc1cccc(COc2ccc(-c3c(-c4ccncc4)nn4c3C(=O)NCC4)cc2)c1", "note": "[Compound 133]", "values": [{"measurement": "BaF3-ROS1-IL3 pIC50", "setting": "[1]", "result": 5.6}, {"measurement": "IC50", "setting": "Ros1 enzyme", "result": "> 10", "unit": "µM"}, {"measurement": "CC50", "setting": "[2]; [4]", "result": "> 10", "unit": "µM"}]}, {"smiles": "CC(C)c1ccc(COc2ccc(-c3c(-c4ccncn4)nn4c3CN(CCO)CC4)cc2)cc1", "note": "[Compound 220]", "values": [{"measurement": "BaF3-ROS1-IL3 pIC50", "setting": "[1]", "result": 6.5}, {"measurement": "IC50", "setting": "Ros1 enzyme", "result": 0.501, "unit": "µM"}, {"measurement": "CC50", "setting": "[2]; [4]", "result": "> 10", "unit": "µM"}]}, {"smiles": "N#Cc1ncc(COc2ccc(-c3c(-c4ccncc4)nn4c3C(=O)NCC4)cc2)cc1Cl", "note": "[Compound 230]", "values": [{"measurement": "melting point", "result": 277, "unit": "°C"}, {"measurement": "BaF3-ROS1-IL3 pIC50", "setting": "[1]", "result": 5.2}, {"measurement": "IC50", "setting": "Ros1 enzyme", "result": "> 10", "unit": "µM"}, {"measurement": "CC50", "setting": "[2]; [4]", "result": "> 10", "unit": "µM"}]}, {"smiles": "CCC(C)c1ccc(COc2ccc(-c3c(-c4ccncc4)nn4c3C(=O)NCC4)cc2)cc1", "note": "(stereo not drawn) [Compound 106]", "values": [{"measurement": "melting point", "result": 229, "unit": "°C"}, {"measurement": "BaF3-ROS1-IL3 pIC50", "setting": "[1]", "result": 7.5}, {"measurement": "IC50", "setting": "Ros1 enzyme", "result": 0.0251, "unit": "µM"}, {"measurement": "CC50", "setting": "[2]", "result": "> 10", "unit": "µM"}]}, {"smiles": "COc1ccc(COc2ccc(-c3c(-c4ccncc4)nn4c3CNCC4)cc2)cc1", "note": "[Compound 188]", "values": [{"measurement": "BaF3-ROS1-IL3 pIC50", "setting": "[1]", "result": 5.5}, {"measurement": "IC50", "setting": "Ros1 enzyme", "result": 3.98, "unit": "µM"}, {"measurement": "CC50", "setting": "[2]; [4]", "result": "> 10", "unit": "µM"}]}, {"smiles": "CC(C)c1ccc(COc2ccc(-c3c(-c4ccncc4)nn4c3C(=O)N(CC(=O)O)CC4)cc2)cc1", "note": "[Compound 66]", "values": [{"measurement": "BaF3-ROS1-IL3 pIC50", "setting": "[1]", "result": 5.1}, {"measurement": "IC50", "setting": "Ros1 enzyme", "result": 0.251, "unit": "µM"}, {"measurement": "CC50", "setting": "[2]", "result": "> 10", "unit": "µM"}]}, {"smiles": "CC(C)c1ccc(C(Oc2ccc(-c3c(-c4ccncc4)nn4c3C(=O)NCC4)cc2)C(=O)NCCO)cc1", "note": "(stereo not drawn) [Compound 218]", "values": [{"measurement": "BaF3-ROS1-IL3 pIC50", "setting": "[1]", "result": 6.3}, {"measurement": "IC50", "setting": "Ros1 enzyme", "result": 0.2, "unit": "µM"}, {"measurement": "CC50", "setting": "[2]", "result": "> 10", "unit": "µM"}]}, {"smiles": "CC(C)c1ccc(COc2ccc(-c3c(-c4ccncc4)nn4c3C(=O)N(CCN)CC4)cc2)cc1", "note": "[Compound 59a]", "values": [{"measurement": "BaF3-ROS1-IL3 pIC50", "setting": "[1]", "result": 6.6}, {"measurement": "ROS1 pIC50", "setting": "Ros1 enzyme", "result": 7.2}]}, {"smiles": "CC(C)c1ccc(COc2ccc(-c3c(-c4ccncc4)nn4c3C(=O)N(CCO)CC4)cn2)cc1", "note": "[Compound 212]", "values": [{"measurement": "BaF3-ROS1-IL3 pIC50", "setting": "[1]", "result": 7.3}, {"measurement": "IC50", "setting": "Ros1 enzyme", "result": 0.0398, "unit": "µM"}, {"measurement": "Ba/F3 Ros1 L2026M (-IL-3) pIC50", "setting": "[3]", "result": 6.8}, {"measurement": "CC50", "setting": "[2]", "result": "> 10", "unit": "µM"}]}, {"smiles": "CC(O)C(=O)N1CCn2nc(-c3ccncc3)c(-c3ccc(OCc4ccc(C(C)C)cc4)cc3)c2C1", "note": "(stereo not drawn) [Compound 180]", "values": [{"measurement": "BaF3-ROS1-IL3 pIC50", "setting": "[1]", "result": 6.5}, {"measurement": "IC50", "setting": "Ros1 enzyme", "result": 0.501, "unit": "µM"}, {"measurement": "CC50", "setting": "[2]; [4]", "result": "> 10", "unit": "µM"}]}]}
